In ChEMBL document CHEMBL1177804, “Synthesis and preliminary evaluation of neuroprotection of celastrol analogues in PC12 cells” (Bioorg Med Chem Lett, 2010):
The source made the active and inactive calls. The calls are words filed in the database; no cut-off is given here.

Tests used:
[1] = system: PC-12; assay: Cytoprotective activity against t-BPH-induced cell damage in rat PC12 cells assessed as cell viability at 1.6 uM; type: functional, cell-based
[2] = system: LNCaP; assay: Antitumor activity against human LNCAP cells; type: functional, cell-based
[3] = system: PC-12; assay: Cytoprotective activity against t-BPH-induced cell damage in rat PC12 cells assessed as cell viability at 0.8 uM; type: functional, cell-based
[4] = system: PC-12; assay: Cytoprotective activity against t-BPH-induced cell damage in rat PC12 cells assessed as cell viability; type: functional, cell-based
[5] = system: PC-12; assay: Cytoprotective activity against t-BPH-induced cell damage in rat PC12 cells assessed as cell viability at 0.1 uM; type: functional; settings: read-out: Activity
[6] = Antitumor activity against mouse SW1 cells; type: functional, cell-based
[7] = system: PC-12; assay: Neuroprotective activity in t-BHP-induced damage in rat PC12 cells assessed as induction of Hsp70 expression by Western blotting; type: functional, cell-based
[8] = system: PC-12; assay: Cytoprotective activity in rat PC12 cells assessed as protection against t-BHP-induced cell damage at 0.4 uM; type: functional
[9] = organism: Rattus norvegicus; assay: Cytoprotective activity against H2O2-induced damage in rat RINm cells; type: functional, cell-based

CC1=C(O)C(=O)C=C2C1=CC=C1[C@@]2(C)CC[C@@]2(C)[C@@H]3C[C@](C)(C(=O)O)CC[C@]3(C)CC[C@]12C [CELASTROL]
Activity [1]: Active
IC50 [2]: 2500 nM
Activity [3]: inactive
IC50 [4]: 3150 nM
viability at 0.1 µM [5]: 65%

COC(=O)[C@]1(C)CC[C@]2(C)CC[C@]3(C)C4=CC=C5C(=CC(=O)C(O)=C5C)[C@]4(C)CC[C@@]3(C)[C@@H]2C1 [PRISTIMERIN]
EC50 [6]: < 100 nM

CC1=C(O)C(=O)C=C2C1=CC=C1[C@@]2(C)CC[C@@]2(C)[C@@H]3C[C@](C)(C(=O)N4CCN(C)CC4)CC[C@]3(C)CC[C@]12C
Activity [1]: Dose-dependent effect

CC1=C(O)/C(=N/O)C=C2C1=CC=C1[C@@]2(C)CC[C@@]2(C)[C@@H]3C[C@](C)(C(=O)O)CC[C@]3(C)CC[C@]12C
Activity [1]: Active

CCCOC(=O)[C@]1(C)CC[C@]2(C)CC[C@]3(C)C4=CC=C5C(=CC(=O)C(O)=C5C)[C@]4(C)CC[C@@]3(C)[C@@H]2C1
Activity [1]: Active

CC1=C(O)C(=O)C=C2C1=CC=C1[C@@]2(C)CC[C@@]2(C)[C@@H]3C[C@](C)(C(=O)OCc4ccccc4)CC[C@]3(C)CC[C@]12C
EC50 [6]: 300 nM

CC1=C(OC(=O)c2nc(C)c(C)nc2C)C(=O)C=C2C1=CC=C1[C@@]2(C)CC[C@@]2(C)[C@@H]3C[C@](C)(C(=O)O)CC[C@]3(C)CC[C@]12C
Activity [7]: Dose-dependent effect
Activity [8]: 76%

CC1=C(OC(=O)CCCCC2CCSS2)C(=O)C=C2C1=CC=C1[C@@]2(C)CC[C@@]2(C)[C@@H]3C[C@](C)(C(=O)O)CC[C@]3(C)CC[C@]12C (some centres undefined)
Activity [9]: Active
Activity [8]: inactive
